Measurements reported in publication PMC6389625, “The Impact and Mechanism of a Novel Allosteric AMPA Receptor Modulator LCX001 on Protection Against Respiratory Depression in Rodents” (Frontiers in Pharmacology, 2019).

How the values were obtained:
AMPA receptors = test: [3H]AMPA binding to brainstem membranes; set-up: species or system rat; conditions: for specific [3H]AMPA binding: 200 nM [3H]AMPA
Method: Adult male SD rats (220–250 g) were euthanized by decapitation. The brainstems were dissected and homogenized for 2 min in 15 volumes of ice-cold 50 mM Tris–HCl buffer (pH 7.4) at 4°C. The homogenates were centrifuged at 1,000 g for 10 min, and the supernatants were collected and centrifuged at 40,000 g for 20 min. The pellets were dispersed in 50 mM Tris-HCl pH 7.4 and centrifuged at 40,000 g for 20 min. The last procedures were repeated a third time with a total of four washes to eliminate endogenous glutamate from the tissue. The resulting pellets were suspended in eight volumes of 0.3 M sucrose, then stored at –70°C until use. […] The binding reaction was performed in disposable glass culture tubes at 25°C for 60 min. […] The pellets were washed with ice-cold Tris-HCl pH 7.4 three times and dried with a piece of tissue paper. […] The binding activity on the filters was detected using a LS6500 scintillation counter (Beckman, Shanghai, China). […] Data are presented as the mean ± standard error of the mean (SEM). In the acetic acid writhing and hot-plate tests, experiments were performed blind. Compounds were injected by one researcher and the behavior or data was recorded by another researcher. The significance of change in respiratory parameters was evaluated by repeated measures two-way ANOVA (dose × time) followed by Bonferroni post-hoc tests for comparisons between groups. In the analysis of the acetic acid writhing test, hot-plate test and [^3H]AMPA binding assay, statistical evaluation between the treated groups and control group was performed by one-way ANOVA followed by Dunnett’s test. For saturation binding with [^3H]AMPA, Kd and Bmax values of different groups were obtained from fits to saturation binding curves with the KaleidaGraph programme. For whole-cell patch-clamp recordings, dose-response curves were fitted to the Hill equation using Origin 9.0 software (Originlab, MA, United States) and statistical significance was determined by one-way ANOVA followed by Dunnett’s test. For live cell imaging, two-way ANOVA followed by Bonferroni post-hoc tests was used to compare the treated groups and vehicle group.

female KM mice = test: Hot-plate test; type: in vivo, mouse
[1] = system: intracellular calcium concentration ([Ca^2+]i) of cultured medullary neurons; test: Ca2+ imaging (Fluo-4 NW) in primary medulla oblongata neurons; type: cell-based, rat; conditions: 40 μM final at 7 min, after glutamate 18 μM and fentanyl or TH-030418 42 μM
SEP-GluA1 = test: Live cell imaging of SEP-GluA1 surface expression in primary medulla oblongata neurons; type: cell-based, rat; conditions: 47 μM final, added at 2 min; P > 0.05
[2] = system: unanaesthetised adult male SD rats
SEP-GluA2(R) = target: T1, SEP-GluA2(R) (Rattus norvegicus, UniProt P19491, Q607R); test: Live cell imaging of SEP-GluA2(R) surface expression in primary medulla oblongata neurons; type: cell-based; conditions: 47 μM final, added at 2 min
T1 construct: adenovirus by Hanbio biotechnology plasmid #24001; host or cells: primary medulla oblongata neurons of neonatal SD rats
T1 sequence (P19491 22-883 Q607R): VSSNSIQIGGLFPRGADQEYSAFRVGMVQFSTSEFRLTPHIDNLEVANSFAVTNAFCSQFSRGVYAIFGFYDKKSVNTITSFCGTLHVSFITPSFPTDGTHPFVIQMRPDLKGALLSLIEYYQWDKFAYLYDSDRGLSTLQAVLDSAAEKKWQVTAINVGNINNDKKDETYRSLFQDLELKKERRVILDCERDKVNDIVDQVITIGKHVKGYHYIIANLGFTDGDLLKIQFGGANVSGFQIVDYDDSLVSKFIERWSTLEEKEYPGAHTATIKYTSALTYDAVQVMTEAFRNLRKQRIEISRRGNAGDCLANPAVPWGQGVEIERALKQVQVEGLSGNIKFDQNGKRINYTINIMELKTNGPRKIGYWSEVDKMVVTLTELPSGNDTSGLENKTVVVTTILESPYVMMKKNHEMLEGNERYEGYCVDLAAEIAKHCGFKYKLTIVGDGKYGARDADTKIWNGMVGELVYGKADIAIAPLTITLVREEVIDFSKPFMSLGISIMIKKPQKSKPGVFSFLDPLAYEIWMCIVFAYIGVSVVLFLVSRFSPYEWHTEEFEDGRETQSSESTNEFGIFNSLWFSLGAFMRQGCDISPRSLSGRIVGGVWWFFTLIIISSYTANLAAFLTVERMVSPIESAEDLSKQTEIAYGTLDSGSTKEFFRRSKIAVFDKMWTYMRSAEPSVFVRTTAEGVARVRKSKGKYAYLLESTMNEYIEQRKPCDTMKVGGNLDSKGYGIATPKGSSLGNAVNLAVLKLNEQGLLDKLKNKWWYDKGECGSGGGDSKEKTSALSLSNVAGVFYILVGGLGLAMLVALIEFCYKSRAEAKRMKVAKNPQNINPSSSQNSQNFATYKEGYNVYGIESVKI

male KM mice = test: Acetic acid writhing test; type: in vivo, mouse; conditions: for inhibition of acetic acid-induced writhing: 10 min before 0.6% acetic acid
rat dentate gyrus = system: rat dentate gyrus; set-up: method as in Street et al., 2008; Mueller and Street, 2012; conditions: ref Street et al., 2008, Mueller and Street, 2012; cited from earlier work
rodents = test: Observation of over-excitability after administration; type: in vivo; conditions: up to 60 mg/kg
[3] = target: T2, recombinant homomeric GluA2(R)flop receptor (Rattus norvegicus, UniProt P19491, Q607R); test: Whole-cell patch-clamp recording of glutamate-evoked currents in HEK293 cells; type: cell-based
T2 construct: rat AMPA-GluA2(R)flop cDNA corresponding to the entire coding region; expressed in transfected cells
T2 sequence (P19491 22-883 Q607R): as above
Method: A wild-type rat AMPA-GluA2(R)flop cDNA corresponding to the entire coding region was generated and cloned into the pcDNA^TM3.1(+) vector (Invitrogen, China, Catalog no. V790-20) by Sangon Biotech Co., Ltd. (Shanghai, China). […] For stable transfection, HEK293 cells (3 × 10^4 cells/well) were seeded in 24-well plates the day before transfection. The cells were grown to 70–90% confluency, and the transfection was performed by adding 1 μg of GluA2 expressing vector per well. Twenty-four hours after transfection, the normal medium was replaced with DMEM/F12 (Gibco, Shanghai, China) growth medium supplemented with 1.0 mg/ml G418 (Gibco, Shanghai, China) and cultured for 7 days. The surviving cells were pelleted and dispersed (100 cells/20 ml), and then seeded into 96-well plates in DMEM/F12 medium containing 500 μg/ml G418. Discrete colonies were picked after 15 days of selection. Western blotting and whole-cell patch-clamp recording were performed to test expression of the AMPA receptor GluA2 subunit and formation of an AMPA-GluA2 ion channel. G418 was kept at 500 μg/ml for the maintenance of stably transfected clones.
HEK293 cells that stably expressed AMPA-GluA2 receptors were seeded into the recording chamber 2 days before patch-clamp recordings, and the experiments were conducted in whole-cell configuration. Thin-walled borosilicate glass (Sutter Instrument, CA, United States) was pulled to make patch pipettes. […] The holding potential was set as -80 mV by an Axopatch-700B amplifier (Axon Instruments, CA, United States), and pClamp8 software (Axon Instruments, CA, United States) was used for data acquisition. Currents were recorded and digitized at 10 kHz. […] LCX001 and CX614 were dissolved in dimethyl sulfoxide (DMSO) before dilution with external bath solution (DMSO final concentration 0.5%). Dose-response curves were fitted to the Hill equation using Origin 9.0 software.

## CN(C(=O)c1ccc2nonc2c1)[C@H]1CC[C@H](O)CC1 [LCX001, N-((1r,4r)-4-hydroxycyclohexyl)-N-methylbenzo[c][1,2,5]oxadiazole-5-carboxamid]
AMPA receptors; LCX001 10^-4 M, control 1595 ± 30
  specific [3H]AMPA binding: 2095 ± 87 cpm/mg protein
AMPA receptors; LCX001 10^-4 M, without LCX001 6.89 ± 0.11
  Bmax of [3H]AMPA after pre-incubation with LCX001: 7.77 ± 0.17 pmol/mg of protein
AMPA receptors; LCX001 10^-5 M, control 1595 ± 30
  specific [3H]AMPA binding: 1964 ± 27 cpm/mg protein
AMPA receptors; LCX001 10^-6 M, control 1595 ± 30
  specific [3H]AMPA binding: 1857 ± 20 cpm/mg protein
AMPA receptors; LCX001 10^-9–10^-7 M, control 1595 ± 30 cpm/mg protein
  specific [3H]AMPA binding: unchanged
Female KM mice; 1.5 mg/kg i.v., 10 min after administration, P > 0.05
  %MPE compared with vehicle: no effect
Female KM mice; 3 mg/kg i.v., 10 min after administration, P > 0.05
  %MPE compared with vehicle: no effect
Female KM mice; 6 mg/kg i.v., 10 min after administration
  %MPE: 30.18 ± 10.56%
Female KM mice; 12 mg/kg i.v., 10 min after administration
  %MPE: 65.27 ± 12.22%
Female KM mice; LCX001 12 mg/kg i.v. 10 min before morphine 10 mg/kg s.c., P > 0.05
  impact on the analgesic effect of morphine (hot-plate test): no impact
[1]
  effect on the increased level of [Ca^2+]i in response to fentanyl and TH-030418: significantly blocked
SEP-GluA1
  SEP-GluA1 fluorescence intensity: no impact
[2]; LCX001 10 mg/kg i.v. 5 min after Nembutal 80 mg/kg i.p., P < 0.05
  effect on Nembutal-induced respiratory depression: ameliorated respiratory depression
[2]; LCX001 10 mg/kg i.v. 5 min after TH-030418 20 μg/kg i.v., P < 0.05
  effect on TH-030418-induced respiratory depression: alleviated the reduction of respiratory parameters
[2]; LCX001 10 mg/kg i.v. 5 min after fentanyl 120 μg/kg s.c., P < 0.05
  effect on fentanyl-induced respiratory depression (respiratory frequency, minute ventilation): effectively countered the inhibition of respiratory frequency and minute ventilation
[2]; LCX001 10 mg/kg i.v. 10 min before propofol 30 mg/kg i.v., P < 0.05
  effect on propofol-induced respiratory depression: reversed the acute reduction of respiratory frequency and minute ventilation
SEP-GluA2(R)
  SEP-GluA2 fluorescence intensity: significant and fast increase
Male KM mice; 1.5 mg/kg i.v.
  inhibition of acetic acid-induced writhing: 30.76 ± 12.75%
Male KM mice; 3 mg/kg i.v.
  inhibition of acetic acid-induced writhing: 41.43 ± 11.32%
Male KM mice; 6 mg/kg i.v.
  inhibition of acetic acid-induced writhing: 85.35 ± 9.53%
Male KM mice; 12 mg/kg i.v.
  inhibition of acetic acid-induced writhing: 94.78 ± 2.74%
Male KM mice; LCX001 12 mg/kg i.v. 10 min before morphine 2.5 mg/kg s.c., P > 0.05
  impact on the analgesic effect of morphine (writhing test): no impact
Rat dentate gyrus
  increase in the amplitude of synaptic currents: 21%
rodents
  over-excitability after administration: no evidence of over-excitability
[3]; 100 μM modulator
  nH of glutamate concentration-response curve in the presence of modulator: 0.84
[3]; 3.5 mM glutamate, 100 μM modulator, control 432 ± 27 pA
  glutamate evoked peak amplitude: 711 ± 20 pA
[3]; 10 mM glutamate, 100 μM modulator, control 752 ± 35 pA
  glutamate evoked peak amplitude: 1120 ± 60 pA
[3]; in the absence of glutamate
  current induced by compound alone: no current

## CCCC(C)C1(CC)C(=O)NC(=O)NC1=O (stereo not shown) [Nembutal, reference compound]
[2]; male, SD, rat, in vivo
  respiratory frequency: 70.3 ± 2.7 % of control

## Cc1o[nH]c(=O)c1CC(N)C(=O)O (stereo not shown) [[^3H]AMPA, reference compound]
AMPA receptors; without LCX001, one-site model
  Bmax of [3H]AMPA saturation binding: 6.89 ± 0.11 pmol/mg of protein
AMPA receptors; without LCX001, one-site model, read-out: Kd of [3H]AMPA saturation binding
  Kd: 171 ± 5 nM

## CN1CC[C@]23c4c5ccc(O)c4O[C@H]2[C@@H](O)C=C[C@H]3[C@H]1C5 [morphine, reference compound]
Female KM mice; 10 mg/kg s.c., 30 min after injection, 55°C
  %MPE: about 100%

## CC(C)c1cccc(C(C)C)c1O [propofol, reference compound]
[2]; male, SD, rat, in vivo
  duration of propofol-mediated respiratory depression: 15 to 25 min
  respiratory frequency: 53.6 ± 5.8 % of control
